Holding throughout (type): binding
For one assay, the target named is CHD3 PHD1 (Homo sapiens, UniProt Q12873). Put plainly: 1H,15N HSQC NMR titration, CHD3 PHD1. As to conditions: compared with unmodified H3; protein:peptide ratio 1:0.5; 298 K.
A further assay deals with CHD3 PHD2 (Homo sapiens, UniProt Q12873). Description: 1H,15N HSQC NMR titration, CHD3 PHD2. To be noted: compared with unmodified H3; protein:peptide ratio 1:0.5; 298 K.
Another assay has as its system CHD3 PHD1/2. Put plainly: 1H,15N HSQC NMR titration, linked CHD3 PHD1/2. As to conditions: 15N-labelled PHD1/2, 298 K, H3 peptides aa 1–12.
The subject of assay [1] is biotinylated histone peptides (residues 1–20 of H3). Put plainly: Pull-down of GST-CHD3 PHDs with biotinylated histone H3 peptides, Western blot. To be noted: blots overexposed to the same degree as PHD1/2; 2 h at 4 °C, pH 8.0. Background: A western blot detects proteins with antibodies after separation by electrophoresis.

The values below come from PMC5653232 (Cell reports, 2017).

Take “H3K4me3: histone H3 peptide (aa 1–12) with the K4me3 modification”: in the assay with CHD3 PHD1, the “effect of modification on binding by NMR CSPs, PHD1” value was “strong inhibitory effects”. Moreover, the “effect of modification on binding by NMR CSPs, PHD2” value with CHD3 PHD2 is listed as “strong inhibitory effects”. The “chemical shift perturbations, linked PHD1/2” value in the assay with CHD3 PHD1/2 is recorded as “CSPs consistent with a much weaker association”. Turning to “PHD1: PHD1 (373–427) of CHD3 (GYETDHQDYCEVCQQGGEIILCDTCPRAYHLVCLDPELDRAPEGKWSCPHCEKEG; left off: GST, end not stated, cleaved)”, in assay [1], the “pull-down association of individual PHD1 and PHD2 with histone peptides” value is “barely detectable”. In the case of “PHD2: PHD2 (454–508) of CHD3 (DHMEYCRVCKDGGELLCCDACISSYHIHCLNPPLPDIPNGEWLCPRCTCPVLKGR; left off: GST, end not stated, cleaved)”, the “pull-down association of individual PHD1 and PHD2 with histone peptides” value in assay [1] is “barely detectable”.
